T1: SRTF1 (Pimelobacter simplex, UniProt A0A0A1DUF2)
T1 construct: gene KR76_27130; assembled on quantum dots for FRET
T1 sequence (A0A0A1DUF2 1-189): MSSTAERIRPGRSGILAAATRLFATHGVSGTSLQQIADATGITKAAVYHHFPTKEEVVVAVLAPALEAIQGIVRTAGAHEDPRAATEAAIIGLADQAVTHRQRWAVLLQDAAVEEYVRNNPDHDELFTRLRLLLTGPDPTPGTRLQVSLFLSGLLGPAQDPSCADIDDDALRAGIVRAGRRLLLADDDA

T2: SRTF1 (Pimelobacter simplex ATCC 6946, UniProt A0A0A1DUF2 1-189)
T2 sequence: T1 sequence (A0A0A1DUF2 1-189)

B1: BLI-SCRM (dsDNA)
DNA 1: AAATTGTCCCGGGCCTTTCTCCGCGCGTCTGGTAACCCTTAGGATTACTC
DNA 2: GAGTAATCCTAAGGGTTACCAGACGCGCGGAGAAAGGCCCGGGACAATTT

Experiments:
SRTF1 [1] = target: T1, SRTF1; assay: QD-TF-FRET, ligand-induced release of Cy5-labelled operator DNA; assay type: biochemical; settings: sensor 3: QD/TF/DNA ratio 1:1:18, operator with 2 mutated bases in one half of palindrome, HEPES, RT; allosteric
SRTF1 [2] = target: T2, SRTF1; assay: BLI; no steroid; BLI: 28 mM Tris-HCl pH 8.0, 5 mM MgCl (so in the source), 4.25% glycerol, 25 mM NaCl, 1.67 mg/mL BSA, 30 C; QD-FRET: 1x HEPES with binding buffer (5x: 25 mM MgCl2, 25% glycerol, 250 mg/L salmon sperm DNA, 0.1 M Tris-HCl), RT; settings: protein: recombinant; tags: C-terminal 6xHis; chain copies: 2; label: 5' biotin on strand 1; blunt

Molecule	IC50 (SRTF1 [1]) [nM]	binding result (SRTF1 [2])
C[C@]12CCC(=O)C=C1CC[C@@H]1[C@@H]2[C@@H](O)C[C@]2(C=O)[C@@H](C(=O)CO)CC[C@@H]12 [ALD, aldosterone]	312 ± 42	
B1		no binding
